Patent publication US6500842B1, “8-hydroxy-7-substituted quinolines as anti-viral agents” (Pharmacia & Upjohn Company, priority 1996, dated 2002)
“And” between values parts separate entries of the source, which are not always exact repeats. Equal entries are not always repeated. Where two headings read alike, the source gives them in different places.

How the values were obtained:
HCMV polymerase = target: T1, HCMV polymerase (Human cytomegalovirus, UniProt P08546); experiment: HCMV polymerase assay (scintillation proximity assay); format: biochemical; details: pol type CMV
T1 construct: made in house; host or cells: recombinant baculovirus-infected SF-9 cells
T1 sequence (P08546 whole entry): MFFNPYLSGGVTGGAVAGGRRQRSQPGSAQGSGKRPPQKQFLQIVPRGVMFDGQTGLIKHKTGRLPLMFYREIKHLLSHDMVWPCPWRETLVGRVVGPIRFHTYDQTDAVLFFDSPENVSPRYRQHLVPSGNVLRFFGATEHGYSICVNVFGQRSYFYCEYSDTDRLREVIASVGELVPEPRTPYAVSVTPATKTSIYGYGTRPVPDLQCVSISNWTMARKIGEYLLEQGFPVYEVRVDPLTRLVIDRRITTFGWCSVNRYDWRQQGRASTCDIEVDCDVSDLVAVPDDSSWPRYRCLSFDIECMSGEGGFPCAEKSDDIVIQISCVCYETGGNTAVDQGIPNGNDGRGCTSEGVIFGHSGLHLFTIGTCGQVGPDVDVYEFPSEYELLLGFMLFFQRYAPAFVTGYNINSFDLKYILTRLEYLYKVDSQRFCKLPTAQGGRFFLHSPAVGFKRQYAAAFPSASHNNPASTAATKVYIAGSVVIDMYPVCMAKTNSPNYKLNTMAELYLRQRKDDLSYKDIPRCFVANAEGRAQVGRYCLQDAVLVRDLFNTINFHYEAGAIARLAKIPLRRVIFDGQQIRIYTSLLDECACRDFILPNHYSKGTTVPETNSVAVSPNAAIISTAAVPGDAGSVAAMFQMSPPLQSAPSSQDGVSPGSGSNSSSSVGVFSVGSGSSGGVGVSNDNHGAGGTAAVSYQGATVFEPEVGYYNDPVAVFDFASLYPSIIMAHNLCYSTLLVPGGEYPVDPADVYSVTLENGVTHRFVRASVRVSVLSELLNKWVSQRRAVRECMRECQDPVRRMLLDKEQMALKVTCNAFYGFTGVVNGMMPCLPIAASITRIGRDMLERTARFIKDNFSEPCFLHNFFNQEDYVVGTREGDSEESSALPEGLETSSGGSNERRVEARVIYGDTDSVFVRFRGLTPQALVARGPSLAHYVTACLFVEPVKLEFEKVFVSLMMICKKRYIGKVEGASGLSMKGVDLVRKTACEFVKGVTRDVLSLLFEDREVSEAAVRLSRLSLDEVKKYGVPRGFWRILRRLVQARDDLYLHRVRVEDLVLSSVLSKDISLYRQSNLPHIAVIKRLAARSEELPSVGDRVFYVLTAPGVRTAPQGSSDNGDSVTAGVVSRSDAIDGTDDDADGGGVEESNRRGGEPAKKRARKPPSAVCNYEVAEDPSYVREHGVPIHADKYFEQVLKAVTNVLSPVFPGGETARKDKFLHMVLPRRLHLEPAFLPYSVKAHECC
Summary of the method: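 Baculovirus/SF-9-expressed purified enzyme in HEPES pH 7.5, KCl, 4.5 mM MgCl2, BSA, with 90 nM ³H-dTTP, ± 2 mM CHAPS; started with 6 nM biotinylated poly(dA)-oligo(dT), 30 min, stopped with EDTA. Incorporation read by streptavidin SPA beads; IC50 by linear regression.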

[1] = Table 1, read-out: CMV pol Assay IC50

| SMILES | IC50 (HCMV polymerase; [1]) | melting point | IC50 (HCMV polymerase; Table 2, read-out: IC50) | IC50 (HCMV polymerase; Table 5, read-out: IC50) |
| --- | --- | --- | --- | --- |
| O=C(Nc1ncc(-c2ccc(Br)s2)s1)c1ccc2cccnc2c1O [Example 7, N-[5-(5-Bromo-2-thienyl)-2-thiazolyl]-8-hydroxy-7-quinolinecarboxamide] | 6.9 µM | 279 to 281 °C (dec.) | – | – |
| O=C(NC1=NC(=O)C(c2cccc(Cl)c2)S1)c1ccc2cccnc2c1O (centres unmarked) [Example 8, N-[5-(3-Chlorophenyl)-4,5-dihydro-4-oxo-2-thiazolyl]-8-hydroxy-7-quinolinecarboxamide] | 20.1 µM | 268 to 272 °C (dec.) | – | – |
| O=C(Nc1nc2ccc(Cl)cc2s1)c1ccc2cccnc2c1O [Example 13, N-(6-Chloro-2-benzothiazolyl)-8-hydroxy-7-quinolinecarboxamide] | > 100 µM | > 320 °C | – | – |
| Cc1ccc2c(Cl)cc(S(=O)(=O)NCc3ccc(Cl)cc3)c(O)c2n1 [Example 17, 5-Chloro-N-[(4-chlorophenyl)methyl]-8-hydroxy-2-methyl-7-quinolinesulfonamide] | – | 158 to 161 °C (dec.) | 11.3 µM | – |
| O=S(=O)(Nc1ccc(Cl)cc1)c1cc(Cl)c2cccnc2c1O [Example 20, 5-Chloro-N-(4-chlorophenyl)-8-hydroxy-7-quinoline-sulfonamide] | – | 97 °C (dec.) | 14.5 µM | – |
| Br.O=S(=O)(NCCCc1ccccc1)c1cc(Cl)c2cccnc2c1O [Example 21, 5-Chloro-8-hydroxy-N-(3-phenylpropyl)-7-quinolinesulfonamide monohydrobromide] | – | 210 to 212 °C (dec.) | 7.5 µM and 12.6 µM | – |
| O=S(=O)(NCCc1ccc(Cl)cc1)c1cc(Cl)c2cccnc2c1O [Example 23, 5-Chloro-N-[2-(4-chlorophenyl)ethyl]-8-hydroxy-7-quinoline-sulfonamide] | – | 192 to 194 °C | 2 µM and 3.1 µM | – |
| Cc1ccc2c(Cl)cc(S(=O)(=O)NCCc3ccc(Cl)cc3Cl)c(O)c2n1 [Example 25, 5-Chloro-N-[2-(2,4-dichlorophenyl)ethyl]-8-hydroxy-2-methyl-7-quinolinesulfonamide] | – | 132 to 135 °C | 3.6 µM | – |
| Cc1ccc2c(Cl)cc(S(=O)(=O)NCCSc3ccccc3)c(O)c2n1 [Example 26, 5-Chloro-8-hydroxy-2-methyl-N-[2-(phenylthio)ethyl]-7-quinolinesulfonamide] | – | 136 to 139 °C | 4.6 µM | – |
| Cc1ccc2c(Cl)cc(S(=O)(=O)NCc3ccccc3)c(O)c2n1 [Example 27, 5-Chloro-8-hydroxy-2-methyl-N-(phenylmethyl)-7-quinoline-sulfonamide] | – | 113 to 114 °C | 14.8 µM | – |
| Cc1ccc2c(Cl)cc(S(=O)(=O)Nc3ccc(Cl)cc3)c(O)c2n1 [Example 28, 5-Chloro-N-(4-chlorophenyl)-8-hydroxy-2-methyl-7-quinoline-sulfonamide] | – | 284 to 287 °C (dec.) | 5.5 µM | – |
| CCCCCCCCNS(=O)(=O)c1cc(Cl)c2ccc(C)nc2c1O [Example 29, 5-Chloro-8-hydroxy-2-methyl-N-octyl-7-quinolinesulfonamide] | – | 85 to 100 °C | 18.3 µM and 40.1 µM | – |
| Cc1ccc2c(Cl)cc(S(=O)(=O)NCc3cccc(Cl)c3)c(O)c2n1 [Example 33, 5-Chloro-N-[(3-chlorophenyl)methyl]-8-hydroxy-2-methyl-7-quinolinesulfonamide] | – | 52 to 54 °C | 12.8 µM | – |
| CCCCCCCNC(=O)c1ccc2ccc(/C=C/c3ccc(OC)cc3)nc2c1O [Example 48, N-Heptyl-8-hydroxy-2-[2-(4-methoxyphenyl)ethenyl]-7-quinolinecarboxamide] | – | 115 to 116 °C | – | 0.5 µM and < 3.1 µM |
| O=C(NCC(O)c1ccccc1)c1ccc2ccc(/C=C/c3ccccc3)nc2c1O (centres unmarked) [Example 50, 8-Hydroxy-N-(2-hydroxy-2-phenylethyl)-2-(2-phenylethenyl)-7-quinolinecarboxamide] | – | 83 to 86 °C | – | < 3.1 µM and 1.2 µM |
| O=C(NCCSc1ccccc1)c1ccc2ccc(/C=C/c3ccccc3)nc2c1O [Example 52, 8-Hydroxy-2-(2-phenylethenyl)-N-[2-(phenylthio)ethyl]-7-quinolinecarboxamide] | – | 131 to 132 °C | – | < 3.1 µM and 0.17 µM |
| COc1ccc(/C=C/c2ccc3ccc(C(=O)NCC(O)c4ccccc4)c(O)c3n2)cc1 (centres unmarked) [Example 53, 8-Hydroxy-N-(2-hydroxy-2-phenylethyl)-2-[2-(4-methoxyphenyl)ethenyl]-7-quinolinecarboxamide] | – | 203 to 205 °C | – | < 3.1 µM and 0.3 µM |
| COc1ccc(/C=C/c2ccc3ccc(C(=O)NCCSc4ccccc4)c(O)c3n2)cc1 [Example 54, 8-Hydroxy-2-[2-(4-methoxyphenyl)ethenyl]-N-[2-(phenylthio)-ethyl]-7-quinolinecarboxamide] | – | 163 to 165 °C | – | < 3.1 µM and 0.3 µM |
| Cc1ccc(NC(=O)c2ccc3cccnc3c2O)c(C)c1 [Example 166, N-(2,4-Dimethylphenyl)-8-hydroxy-7-quinolinecarboxamide] | – | 164 to 167 °C | – | – |
| O=C(Nc1nnc(Br)s1)c1ccc2cccnc2c1O [Example 244, N-(5-Bromo-1,3,4-thiadiazol-2-yl)-8-hydroxy-7-quinolinecarboxamide] | – | 250 °C (dec.) | – | – |

More lines, now with the values ahead:

| IC50 (HCMV polymerase; [1]) | melting point | IC50 (HCMV polymerase; Table 2, read-out: IC50) | IC50 (HCMV polymerase; Table 5, read-out: IC50) | SMILES |
| --- | --- | --- | --- | --- |
| 4.3 µM | 276 to 278 °C | – | – | O=C(Nc1nnc(Cc2ccc(Cl)cc2)s1)c1ccc2cccnc2c1O [Example 2, N-[5-[(4-Chlorophenyl)methyl]-1,3,4-thiadiazol-2-yl]-8-hydroxy-7-quinolinecarboxamide] |
| 7.1 µM | 207 to 209 °C | – | – | O=C(Nc1ccc(Cl)cc1)c1ccc2cccnc2c1O [Example 3, N-(4-Chlorophenyl)-8-hydroxy-7-quinolinecarboxamide] |
| 3.9 µM and 3.1 µM and 5.1 µM | 213 to 215 °C | – | – | O=C(Nc1ccc(Cl)cc1)c1cc(Br)c2cccnc2c1O [Example 4, 5-Bromo-N-(4-chlorophenyl)-8-hydroxy-7-quinolinecarboxamide] |
| 6.8 µM | 272 to 276 °C (dec.) | – | – | O=C(NC1=NC(=O)C(c2ccc(Cl)cc2)S1)c1ccc2cccnc2c1O (centres unmarked) [Example 5, N-[5-(4-Chlorophenyl)-4,5-dihydro-4-oxo-2-thiazolyl]-8-hydroxy-7-quinolinecarboxamide] |
| 2.5 µM | 148 to 151 °C | – | – | O=C(NCc1ccc(Cl)cc1)c1cc(Br)c2cccnc2c1O [Example 9, 5-Bromo-N-[(4-chlorophenyl)methyl]-8-hydroxy-7-quinolinecarboxamide] |
| 19 µM | 95 to 98 °C | – | – | Cc1ccc2ccc(C(=O)NCc3ccc(Cl)cc3)c(O)c2n1 [Example 10, N-[(4-Chlorophenyl)methyl]-8-hydroxy-2-methyl-7-quinolinecarboxamide] |
| 1.3 µM | 163 to 166 °C | – | – | O=C(NCc1ccc(Cl)cc1)c1cc(Cl)c2cccnc2c1O [Example 11, 5-Chloro-N-[(4-chlorophenyl)methyl]-8-hydroxy-7-quinolinecarboxamide] |
| 15.9 µM | 210 to 212 °C | – | – | O=C(NCc1ccc([N+](=O)[O-])cc1)c1ccc2cccnc2c1O [Example 12, 8-Hydroxy-N-[(4-nitrophenyl)methyl]-7-quinolinecarboxamide] |
| 1.6 µM | 214 to 216 °C | – | – | O=C(Nc1ccc(Cl)cc1)c1cc(Cl)c2cccnc2c1O [Example 15, 5-Chloro-N-(4-chlorophenyl)-8-hydroxy-7-quinolinecarboxamide] |
| 5.8 µM | 184 to 185 °C | – | – | O=C(NCc1ccc(Cl)cc1)c1cc(F)c2cccnc2c1O [Example 16, 5-Fluoro-N-[[4-chlorophenyl]methyl]-8-hydroxy-7-quinolinecarboxamide] |
| – | 189 to 190 °C (dec.) | 27.9 µM | – | O=S(=O)(NCc1ccc(Cl)cc1)c1cc(Cl)c2cccnc2c1O [Example 18, 5-Chloro-N-[(4-chlorophenyl)methyl]-8-hydroxy-7-quinoline-sulfonamide] |
| – | 162 to 163 °C (dec.) | 23.6 µM | – | CC(C)(C)c1ccc2c(Cl)cc(S(=O)(=O)NCc3ccc(Cl)cc3)c(O)c2n1 [Example 19, 5-Chloro-N-[(4-chlorophenyl)methyl]-2-(1,1-dimethylethyl)-8-hydroxy-7-quinolinesulfonamide] |
| – | 135 to 140 °C (dec.) | – | 23.3 µM | O=C(NCc1ccc(Cl)cc1)c1ccc2c(O)cc(C(F)(F)F)nc2c1O [Example 46, N-[(4-Chlorophenyl)methyl]-4,8-dihydroxy-2-trifluoromethyl-7-quinolinecarboxamide] |
| – | 200 to 201 °C | – | 0.35 µM and < 0.3 µM | COc1ccc(/C=C/c2ccc3ccc(C(=O)NCc4ccc(Cl)cc4)c(O)c3n2)cc1 [Example 47, N-[(4-Chlorophenyl)methyl]-8-hydroxy-2-[2-(4-methoxyphenyl)ethenyl]-7-quinolinecarboxamide] |
| – | 192 to 194 °C | – | < 3.1 µM and 0.17 µM | O=C(NCc1ccc(Cl)cc1)c1ccc2ccc(/C=C/c3ccccc3)nc2c1O [Example 51, N-[(4-Chlorophenyl)methyl]-8-hydroxy-2-(2-phenylethenyl)-7-quinolinecarboxamide] |
| – | 92 to 94 °C | – | 31.5 µM and 19.7 µM | O=C(NCc1ccc(Cl)cc1)c1ccc2ccc(C(F)(F)F)nc2c1O [Example 55, N-[(4-Chlorophenyl)methyl]-8-hydroxy-2-(trifluoromethyl)-7-quinolinecarboxamide] |
| – | 300 to 302 °C (dec.) | – | – | O=C(Nc1nnc(C(F)(F)F)s1)c1ccc2cccnc2c1O [Example 243, 8-Hydroxy-N-[5-(trifluoromethyl)-1,3,4-thiadiazol-2-yl]-7-quinolinecarboxamide] |
